Experiment [1] has as its target Eukaryotic translation initiation factor 4H (Homo sapiens, UniProt Q15056). Description: inhibitors of translation initiation factor eIF4H – SAR follow-up (AID 435011). It is filed as functional.
For experiment [2], the target named is Polyadenylate-binding protein 1 (Homo sapiens, UniProt P11940). The experiment can be described thus: PABP inhibition in translation initiation, SAR follow-up (AID 435018). Format: functional.
Experiment [3] deals with T1, Heat shock factor protein 1 (Mus musculus, UniProt P38532).
T1 sequence (P38532 whole entry): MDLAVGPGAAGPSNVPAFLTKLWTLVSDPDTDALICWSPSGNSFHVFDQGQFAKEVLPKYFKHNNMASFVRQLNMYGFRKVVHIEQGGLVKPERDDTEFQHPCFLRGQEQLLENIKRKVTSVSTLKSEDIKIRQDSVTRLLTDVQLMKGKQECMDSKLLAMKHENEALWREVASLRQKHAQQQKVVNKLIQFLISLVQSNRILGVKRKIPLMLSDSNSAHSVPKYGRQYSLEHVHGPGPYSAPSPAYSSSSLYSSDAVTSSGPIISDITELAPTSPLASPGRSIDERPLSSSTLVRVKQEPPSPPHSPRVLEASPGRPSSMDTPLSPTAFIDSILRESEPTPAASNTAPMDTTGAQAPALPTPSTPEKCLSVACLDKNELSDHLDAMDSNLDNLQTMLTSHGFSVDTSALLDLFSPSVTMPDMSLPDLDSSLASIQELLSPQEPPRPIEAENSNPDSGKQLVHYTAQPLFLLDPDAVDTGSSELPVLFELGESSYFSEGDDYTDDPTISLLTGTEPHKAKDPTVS
The experiment can be described thus: decrease of HSF1-responsive luciferase luminescence – cell-based, NIH3T3, dose retest, confirmation (AID 2382).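 Note: NIH3T3 fibroblasts with HSF1-driven luciferase reporter stressed by proteasome inhibitor MG132; luminescence from HSF1-driven luciferase expression after 8 hours of MG132 stress.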 It is filed as functional.

Experiment [4] addresses Scavenger receptor class B member 1 (Mus musculus, UniProt Q61009). The experiment can be described thus: mouse SR-BI DiI-HDL uptake blockers – ldlA[mSR-BI] cells, fluorescence, cherry pick, dose response (AID 493194).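 Note: cellular uptake of fluorescent DiI-labeled HDL measured as cell fluorescence.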 Format: functional, cell-based.
The nature of experiment [5]: NIH-3T3 fibroblast cytotoxicity, dose response, cytotoxicity control, cell-based, fluorescence, Alamar Blue, secondary assay (AID 2327).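 Note: NIH-3T3 mouse fibroblasts cultured with fluconazole at 8 µg/mL.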 It is filed as functional. In general terms: Alamar Blue is a resazurin reagent that responds to reducing activity.
The nature of experiment [6]: fluconazole-exposed Candida albicans growth modulators – fluorescence, retest, confirmation (AID 2467). Format: functional, cell-based.
Experiment [7] has as its target T2, Mannose-6-phosphate isomerase (Homo sapiens, UniProt P34949).
T2 sequence (P34949 whole entry): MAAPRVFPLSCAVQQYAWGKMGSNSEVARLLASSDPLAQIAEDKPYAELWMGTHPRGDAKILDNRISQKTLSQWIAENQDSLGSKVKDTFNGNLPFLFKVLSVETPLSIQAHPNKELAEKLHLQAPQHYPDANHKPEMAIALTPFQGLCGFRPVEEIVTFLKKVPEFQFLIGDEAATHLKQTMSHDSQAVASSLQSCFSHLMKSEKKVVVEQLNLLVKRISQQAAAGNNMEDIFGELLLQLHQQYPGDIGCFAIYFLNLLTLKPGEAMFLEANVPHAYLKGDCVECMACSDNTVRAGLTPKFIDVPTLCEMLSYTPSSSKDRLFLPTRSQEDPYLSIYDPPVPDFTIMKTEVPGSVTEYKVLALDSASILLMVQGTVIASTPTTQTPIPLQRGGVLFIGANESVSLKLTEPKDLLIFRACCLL
Description: MPI enzyme activity inhibition – biochemical, fluorescence intensity, coupled assay, primary screen (AID 1209).

In experiment [8] the target is T2, Mannose-6-phosphate isomerase. Description: MPI inhibition at elevated mannose 6-phosphate – biochemical, fluorescence intensity, high mannose 6-phosphate, primary screen (AID 1220).
A further experiment has as its target Beta-galactosidase (Escherichia coli, UniProt Q8VNN2). The experiment can be described thus: detection-enzyme interference by beta-gal modulators – biochemical, E. coli enzyme, set 3, artefact control for CCR6 antagonist project, dose response (AID 504712). Format: functional.
Another experiment concerns the target Nonstructural protein 1 (Influenza A virus, UniProt Q194T2). Format: functional, Influenza A virus (A/California/07/2009(H1N1)).
The next experiment has as its target Trypsin (Sus scrofa, UniProt P00761). Description: trypsin protease activity blockade – biochemical, quenched peptide fluorescence, cherry-pick, selectivity assay for Rce1 protease inhibitor project, dose response (AID 488789).
A short description of experiment [9]: Cytotoxicity screening for potential Inhibitors of Bacterial Capsule Biogenesis. [Related pubchem assays (depositor defined):AID488970]. It is filed as functional.
The subject of the next experiment is HeLa. The experiment can be described thus: ATP-based viability loss in HeLa cells – cell-based, CellTiter-Glo luminescence, cherry-pick samples, cytotoxicity control for MITF activator project, dose response (AID 540259). Particulars: Homo sapiens. Format: functional. In general terms: In ATP-based viability assays light output follows the ATP content of the culture.

The source made the active and inactive calls.

Chain of Polyadenylate-binding protein 1 (P11940 whole entry): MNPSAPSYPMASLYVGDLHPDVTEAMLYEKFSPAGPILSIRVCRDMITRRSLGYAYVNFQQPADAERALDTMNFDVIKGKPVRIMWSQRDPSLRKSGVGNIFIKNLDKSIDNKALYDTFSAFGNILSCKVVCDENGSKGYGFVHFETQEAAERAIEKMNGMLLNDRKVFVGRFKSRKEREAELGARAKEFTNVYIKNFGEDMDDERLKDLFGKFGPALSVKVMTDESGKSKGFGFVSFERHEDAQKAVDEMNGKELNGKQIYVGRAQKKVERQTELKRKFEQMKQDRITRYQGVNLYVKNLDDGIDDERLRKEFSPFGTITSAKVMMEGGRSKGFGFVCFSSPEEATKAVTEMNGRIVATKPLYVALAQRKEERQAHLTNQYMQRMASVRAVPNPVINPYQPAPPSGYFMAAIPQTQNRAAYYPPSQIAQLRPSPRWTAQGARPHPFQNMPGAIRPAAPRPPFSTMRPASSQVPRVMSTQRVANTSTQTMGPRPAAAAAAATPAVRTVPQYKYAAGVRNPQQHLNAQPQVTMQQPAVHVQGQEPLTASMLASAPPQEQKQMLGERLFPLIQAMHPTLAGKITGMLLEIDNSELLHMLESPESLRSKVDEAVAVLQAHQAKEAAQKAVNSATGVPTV
Chain of Trypsin (P00761 whole entry): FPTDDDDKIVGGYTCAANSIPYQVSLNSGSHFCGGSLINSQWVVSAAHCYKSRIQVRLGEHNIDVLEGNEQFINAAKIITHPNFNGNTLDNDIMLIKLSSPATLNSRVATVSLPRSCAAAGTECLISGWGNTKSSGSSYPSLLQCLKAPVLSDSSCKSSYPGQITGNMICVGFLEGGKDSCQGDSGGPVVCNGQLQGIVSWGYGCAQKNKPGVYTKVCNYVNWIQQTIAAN
Chain of Nonstructural protein 1 (Q194T2 whole entry): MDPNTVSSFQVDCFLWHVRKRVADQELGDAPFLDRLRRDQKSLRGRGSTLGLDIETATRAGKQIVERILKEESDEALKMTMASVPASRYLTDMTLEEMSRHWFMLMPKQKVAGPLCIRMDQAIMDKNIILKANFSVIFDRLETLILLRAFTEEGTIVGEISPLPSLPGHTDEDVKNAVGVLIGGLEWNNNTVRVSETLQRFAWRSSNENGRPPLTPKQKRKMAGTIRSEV
Chain of Beta-galactosidase (Q8VNN2 whole entry): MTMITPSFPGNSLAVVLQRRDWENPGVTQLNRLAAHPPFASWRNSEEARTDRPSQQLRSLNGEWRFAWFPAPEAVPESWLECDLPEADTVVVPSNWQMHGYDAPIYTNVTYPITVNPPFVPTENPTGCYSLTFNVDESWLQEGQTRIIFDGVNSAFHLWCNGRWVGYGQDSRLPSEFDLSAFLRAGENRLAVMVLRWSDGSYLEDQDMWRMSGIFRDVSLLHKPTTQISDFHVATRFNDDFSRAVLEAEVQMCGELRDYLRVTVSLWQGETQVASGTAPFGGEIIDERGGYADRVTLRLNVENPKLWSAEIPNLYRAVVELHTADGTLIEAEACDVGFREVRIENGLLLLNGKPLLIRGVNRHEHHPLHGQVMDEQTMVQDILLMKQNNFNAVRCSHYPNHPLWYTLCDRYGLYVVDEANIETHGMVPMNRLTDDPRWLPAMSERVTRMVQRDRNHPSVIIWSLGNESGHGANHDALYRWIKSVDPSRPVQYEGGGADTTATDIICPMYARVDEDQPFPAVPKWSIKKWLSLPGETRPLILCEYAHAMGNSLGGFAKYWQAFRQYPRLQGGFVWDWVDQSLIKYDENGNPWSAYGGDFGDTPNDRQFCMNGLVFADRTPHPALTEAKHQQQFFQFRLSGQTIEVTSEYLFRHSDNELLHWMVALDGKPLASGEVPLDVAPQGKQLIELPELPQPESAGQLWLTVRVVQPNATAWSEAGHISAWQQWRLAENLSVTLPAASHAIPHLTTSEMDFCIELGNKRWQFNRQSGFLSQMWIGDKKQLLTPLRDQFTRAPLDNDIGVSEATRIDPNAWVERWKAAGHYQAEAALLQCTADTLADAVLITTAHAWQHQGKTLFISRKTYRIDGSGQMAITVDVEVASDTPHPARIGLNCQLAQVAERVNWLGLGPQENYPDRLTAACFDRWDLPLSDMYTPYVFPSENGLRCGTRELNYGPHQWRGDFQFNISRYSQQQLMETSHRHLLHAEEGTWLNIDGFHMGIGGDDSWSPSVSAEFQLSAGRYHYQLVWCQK
Chain of Scavenger receptor class B member 1 (Q61009 whole entry): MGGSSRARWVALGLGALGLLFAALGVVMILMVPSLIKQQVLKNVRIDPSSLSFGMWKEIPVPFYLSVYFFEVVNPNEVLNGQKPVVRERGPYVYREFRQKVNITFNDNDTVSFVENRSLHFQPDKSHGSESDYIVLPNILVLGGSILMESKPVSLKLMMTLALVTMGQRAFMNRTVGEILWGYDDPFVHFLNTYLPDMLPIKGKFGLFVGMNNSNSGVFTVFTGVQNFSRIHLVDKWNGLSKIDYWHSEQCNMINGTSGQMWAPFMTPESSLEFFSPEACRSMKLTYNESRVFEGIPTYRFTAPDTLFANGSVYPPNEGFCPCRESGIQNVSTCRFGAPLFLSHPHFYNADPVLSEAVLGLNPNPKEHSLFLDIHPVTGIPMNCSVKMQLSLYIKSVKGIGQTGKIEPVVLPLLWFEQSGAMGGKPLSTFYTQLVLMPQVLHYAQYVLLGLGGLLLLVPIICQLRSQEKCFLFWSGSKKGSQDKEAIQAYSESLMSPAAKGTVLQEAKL

With `O=C(CSc1ccc(-c2ccco2)nn1)Nc1ccccc1`, the IC50 (in general, the concentration needed to halve the response being measured) in experiment [1] was 84.4 µM (active); in [2] it was > 100 µM (inactive).
`CCOc1ccccc1/C=C/c1onc(C)c1S(=O)(=O)N1CCC(C(=O)NC(C)(C)C)CC1`: the EC50 (usually the midpoint of the concentration-response curve) in [3] is given as > 195 µM (not active). For the same molecule, in experiment [4], the AC50 (in general, the concentration at which the activity in the assay is half-maximal) was 0.05 µM (active).
For `Cc1n[nH]c(=S)n(NC(=O)CC(=O)Nn2c(=S)[nH]nc(C)c2=O)c1=O`, the EC50 in experiment [5] was > 150 µM (inactive); in experiment [6], 4.66 µM (active). Besides, the half-maximal inhibitory concentration (IC50) in [7] is > 50 µM (not active); in [8], > 50 µM (not active); on Beta-galactosidase, > 66.6 µM (inactive); at Nonstructural protein 1 it was 6.42 µM (active).
Regarding `Cc1ccc(O)c(CNc2cnc3ccccc3c2)c1`, the AC50 on Trypsin is 12.8 µM (active).
As to `CCc1ccc(NC(=O)c2ccc3nc(N)sc3c2)cc1`, in experiment [9], the half-maximal cytotoxic concentration (CC50) – broadly, the concentration that lowers cell viability or growth by half – was 54 µM (active). For the same molecule, the half-maximal activity concentration (AC50) in the experiment with HeLa was 47.4 µM (active).

The record behind these values is ChEMBL document CHEMBL1201862, “PubChem BioAssay data set” (2004).
